Test results: patent US11254652B2, “Crystalline forms of N-(4-(4-(cyclopropymethyl)piperazine-1-carbonyl)phenyl)quinoline-8-sulfonamide” (Agios Pharmaceuticals, Inc., priority 2017, dated 2022)
Read-outs that look alike come from different tables or passages of the source.

Key:
Type in all cases: physicochemical
[1] = Solubility measurements by gravimetric method in solvents at 23° C. and 50° C.; conditions: for solubility at 2 days: thermodynamic from solid
Protocol: Solubility measurements were done by gravimetric method in 20 different solvents at two temperatures (23° C. and 50° C.). About 20-30 mg of Form A, the synthesis of which is described below, was weighed and 0.75 mL solvent was added to form a slurry. The slurry was then stirred for two days at the specified temperature. The vial was centrifuged and the supernatant was collected for solubility measurement through gravimetric method. The saturated supernatant was transferred into pre-weighed 2 mL HPLC vials and weighed again (vial+liquid). The uncapped vial was then left on a 50° C. hot plate to slowly evaporate the solvent overnight. The vials were then left in the oven at 50° C. and under vacuum to remove the residual solvent so that only the dissolved solid remained. The vial was then weighed (vial+solid). From these three weights; vial, vial+liquid and vial+solid; the weight of dissolved solid and the solvent were calculated. Then using solvent density the solubility was calculated as mg solid/mL of solvent.
20-30 mg of Form A was weighed into 2 mL vial and 500 μL MeOH solvent system as outlined in the table was added. If dissolved, more solids were added to form the slurry. The slurries were then stirred for two days. The vials were centrifuged and the supernatant was collected for solubility measurement through gravimetric method by evaporation at 50° C. XRPD analysis was conducted on the solid after filtration of the slurries.
For the sake of comparison, the solubility of Compound 1, i.e., the non-crystalline freebase, was also measured in two solvent systems to see the effect of water.

[2] = Dynamic Vapor Sorption (DVS)
Protocol: Dynamic Vapor Sorption (DVS) was done using a DVS Intrinsic 1. The sample is loaded into a sample pan and suspended from a microbalance. A typical sample mass for DVS measurement is 25 mg. Nitrogen gas bubbled through distilled water provides the desired relative humidity. A typical measurement comprises the steps: • 1. Equilibrate at 50% RH • 2. 50% to 2%. (50%, 40%, 30%, 20%, 10% and 2%) • a. Hold minimum of 5 mins and maximum of 60 minutes at each humidity. The pass criteria is less than 0.002% change • 3. 2% to 95% (2%, 10%, 20%, 30%, 40%, 50%, 60%, 70%, 80%, 90%, 95%) • b. Hold minimum of 5 mins and maximum of 60 minutes at each humidity. The pass criteria is less than 0.002% change • 4. 95% to 2% (95%, 80%, 70%, 60%, 50%, 40%, 30%, 20%, 10%, 2%) • c. Hold minimum of 5 mins and maximum of 60 minutes at each humidity. The pass criteria is less than 0.002% change • 5. 2% to 50% (2%, 10%, 20%, 30%, 40%, 50%) • d. Hold minimum of 5 mins and maximum of 60 minutes at each humidity. The pass criteria is less than 0.002% change
(§1) The water content by Karl Fisher was about 5.3%. […] A DVS isotherm taken at 40° C. was essentially the same as the one at 25° C. […] Humidity test was conducted on Form A with exposure to 11%, 48%, and 75% relative humidity at 40° C. for 2 weeks followed by XRPD analysis. […] Crystallographic data for Form A is as follows:
Form B tends to hold substantial amount of solvent.
(§2) Form D was determined to be anhydrous with a melting peak at 239° C. See e.g., FIG. 9. DVS of Pattern D was performed and solid picked up about 2% moisture from 2% to 95% relative humidity.

[3] = Humidity / desiccant exposure test followed by XRPD analysis; conditions: for XRPD after exposure to phosphorus pentoxide (P2O5) granules: one week
Protocol: FIG. 5 (i) depicts X-ray powder diffraction pattern (XRPD) overlay for crystalline hemisulfate salt Form A and after exposure to 11%, 48%, and 75% relative humidity and 40° C. for two weeks. […] FIG. 5 (ii) depicts XRPD overlay for crystalline hemisulfate salt Form A and after exposure to phosphorus pentoxide (P2O5) granules at room temperature and 50° C. for one week, as well as ambient temperature in a vial for 24 hrs.
as §1, §2

## O=C(c1ccc(NS(=O)(=O)c2cccc3cccnc23)cc1)N1CCN(CC2CC2)CC1 [Form A, 1-(cyclopropylmethyl)-4-(4-(quinoline-8-sulfonamido)benzoyl)piperazin-1-ium hemisulfate sesquihydrate]
[1]; MeOAc:MeOH (1:1), 50 °C, organic solvent or mixture, MeOAc:MeOH (1:1), 50° C., read-out: Solubility
  solubility at 2 days: 340000 µg/mL
[1]; MeOH, 23 °C, organic solvent or mixture, MeOH, 23° C., 2 days slurry, read-out: Solubility
  solubility at 2 days: 393000 µg/mL
[1]; MeOH, 50 °C, organic solvent or mixture, MeOH, 50° C., 2 days slurry, read-out: Solubility
  solubility at 2 days: > 765000 µg/mL
[1]; MeOH:Water (1:1), 23 °C, aqueous with cosolvent or surfactant or cyclodextrin, MeOH:Water (1:1), 23° C., read-out: Solubility
  solubility at 2 days: 7000 µg/mL
[1]; MeOH:Water (1:1), 50 °C, aqueous with cosolvent or surfactant or cyclodextrin, MeOH:Water (1:1), 50° C., read-out: Solubility
  solubility at 2 days: 27000 µg/mL
[1]; MeOH:water (1:1) system as printed, 0 vol % water, organic solvent or mixture, MeOH:water (1:1) system as printed, 0 vol % water, read-out: room temperature solubility
  solubility at 2 days: 208000 µg/mL
[1]; MeOH:water (1:1) system as printed, 1% water, organic solvent or mixture, MeOH:water (1:1) system as printed, 1% water, read-out: room temperature solubility
  solubility at 2 days: 118000 µg/mL
[1]; MeOH:water (1:1) system as printed, 2.5% water, organic solvent or mixture, MeOH:water (1:1) system as printed, 2.5% water, read-out: room temperature solubility
  solubility at 2 days: 39000 µg/mL
[1]; MeOH:water (1:1) system as printed, 5% water, organic solvent or mixture, MeOH:water (1:1) system as printed, 5% water, read-out: room temperature solubility
  solubility at 2 days: 5000 µg/mL
[1]; MeOH:water (8:2), 23 °C, organic solvent or mixture, MeOH:water (8:2), 23° C., read-out: Solubility
  solubility at 2 days: 10000 µg/mL
[1]; MeOH:water (8:2), 50 °C, organic solvent or mixture, MeOH:water (8:2), 50° C., read-out: Solubility
  solubility at 2 days: 59000 µg/mL
[1]; MtBE, 23 °C, organic solvent or mixture, MtBE, 23° C., read-out: Solubility
  solubility at 2 days: 1000 µg/mL
[1]; MtBE, 50 °C, organic solvent or mixture, MtBE, 50° C., read-out: Solubility
  solubility at 2 days: 3000 µg/mL
[1]; THF, 23 °C, organic solvent or mixture, THF, 23° C., read-out: Solubility
  solubility at 2 days: 2000 µg/mL
[1]; THF, 50 °C, organic solvent or mixture, THF, 50° C., read-out: Solubility
  solubility at 2 days: 26000 µg/mL
[1]; THF:water (8:2), 23 °C, organic solvent or mixture, THF:water (8:2), 23° C., read-out: Solubility
  solubility at 2 days: 14000 µg/mL
[1]; THF:water (8:2), 50 °C, organic solvent or mixture, THF:water (8:2), 50° C., read-out: Solubility
  solubility at 2 days: 77000 µg/mL
[1]; Toluene, 23° C.
  Solubility: 0 mg solid/mL solvent
[1]; Toluene:EtOH:water (10:5:0.5), 23 °C, organic solvent or mixture, Toluene:EtOH:water (10:5:0.5), 23° C., read-out: Solubility
  solubility at 2 days: 1000 µg/mL
[1]; Toluene:EtOH:water (10:5:0.5), 50 °C, organic solvent or mixture, Toluene:EtOH:water (10:5:0.5), 50° C., read-out: Solubility
  solubility at 2 days: 4000 µg/mL
[1]; acetone, 23 °C, organic solvent or mixture, Acetone, 23° C., read-out: Solubility
  solubility at 2 days: 1000 µg/mL
[1]; acetone, 50 °C, organic solvent or mixture, Acetone, 50° C., read-out: Solubility
  solubility at 2 days: 6000 µg/mL
[1]; acetone:water (8:2), 23 °C, organic solvent or mixture, acetone:water (8:2), 23° C., read-out: Solubility
  solubility at 2 days: 5000 µg/mL
[1]; acetone:water (8:2), 50 °C, organic solvent or mixture, acetone:water (8:2), 50° C., read-out: Solubility
  solubility at 2 days: 16000 µg/mL
[1]; acetonitrile, 23 °C, organic solvent or mixture, Acetonitrile, 23° C., read-out: Solubility
  solubility at 2 days: 4000 µg/mL
[1]; acetonitrile, 50 °C, organic solvent or mixture, Acetonitrile, 50° C., read-out: Solubility
  solubility at 2 days: 6000 µg/mL
[1]; cyclohexane, 23 °C, organic solvent or mixture, Cyclohexane, 23° C., read-out: Solubility
  solubility at 2 days: 1000 µg/mL
[1]; cyclohexane, 50 °C, organic solvent or mixture, Cyclohexane, 50° C., read-out: Solubility
  solubility at 2 days: 1000 µg/mL
[1]; room temperature, 0 vs 5 vol % water
  decrease of solubility on adding 5 vol % water: 42 fold
[1]; toluene, 50 °C, organic solvent or mixture, Toluene, 50° C., read-out: Solubility
  solubility at 2 days: 2000 µg/mL
[2]; 25° C., from 2% to 95% relative humidity
  moisture picked up in DVS: about 1.3%
[2]; Form A: DVS at 25° C. and 40° C., hemisulfate sesquihydrate
  XRPD after DVS: remained unchanged
[3]; 11%, 48%, and 75% relative humidity at 40° C. for 2 weeks
  XRPD after humidity test: remained unchanged
[3]; 50° C.
  XRPD after exposure to phosphorus pentoxide (P2O5) granules: slightly shifted
[3]; ambient for 24 hrs, changes reversible
  XRPD peaks after P2O5 at 50° C. then exposure to ambient: shifted back to original positions
[3]; room temperature
  XRPD after exposure to phosphorus pentoxide (P2O5) granules: no change
